In publication PMC11345841, “Exploring 2-Sulfonylpyrimidine Warheads as Acrylamide Surrogates for Targeted Covalent Inhibition: A BTK Story” (Journal of Medicinal Chemistry, 2024):
Like-named read-outs stand apart in the source and are kept apart here.

Tests used:
[1] = test system: EGFR(L747-T751del,Sins); experiment: KINOMEscan ScanTK; type: binding; conditions: for % difference (compound - Ib %Control) / %Control: @1000nM
[2] = biological target: T1, MET (Homo sapiens, UniProt P08581); experiment: KINOMEscan ScanTK; type: binding
T1 construct: purchased Eurofins DiscoverX KINOMEscan (scanTK)

[3] = biological target: T2, ROS1 (Homo sapiens, UniProt P08922); experiment: KINOMEscan ScanTK; type: binding; conditions: for %Control difference versus reference Ib at 1 µM: read-out: % difference (compound - Ib %Control)
T2 construct: purchased Eurofins DiscoverX KINOMEscan (scanTK)
T2 sequence (P08922 28-2347): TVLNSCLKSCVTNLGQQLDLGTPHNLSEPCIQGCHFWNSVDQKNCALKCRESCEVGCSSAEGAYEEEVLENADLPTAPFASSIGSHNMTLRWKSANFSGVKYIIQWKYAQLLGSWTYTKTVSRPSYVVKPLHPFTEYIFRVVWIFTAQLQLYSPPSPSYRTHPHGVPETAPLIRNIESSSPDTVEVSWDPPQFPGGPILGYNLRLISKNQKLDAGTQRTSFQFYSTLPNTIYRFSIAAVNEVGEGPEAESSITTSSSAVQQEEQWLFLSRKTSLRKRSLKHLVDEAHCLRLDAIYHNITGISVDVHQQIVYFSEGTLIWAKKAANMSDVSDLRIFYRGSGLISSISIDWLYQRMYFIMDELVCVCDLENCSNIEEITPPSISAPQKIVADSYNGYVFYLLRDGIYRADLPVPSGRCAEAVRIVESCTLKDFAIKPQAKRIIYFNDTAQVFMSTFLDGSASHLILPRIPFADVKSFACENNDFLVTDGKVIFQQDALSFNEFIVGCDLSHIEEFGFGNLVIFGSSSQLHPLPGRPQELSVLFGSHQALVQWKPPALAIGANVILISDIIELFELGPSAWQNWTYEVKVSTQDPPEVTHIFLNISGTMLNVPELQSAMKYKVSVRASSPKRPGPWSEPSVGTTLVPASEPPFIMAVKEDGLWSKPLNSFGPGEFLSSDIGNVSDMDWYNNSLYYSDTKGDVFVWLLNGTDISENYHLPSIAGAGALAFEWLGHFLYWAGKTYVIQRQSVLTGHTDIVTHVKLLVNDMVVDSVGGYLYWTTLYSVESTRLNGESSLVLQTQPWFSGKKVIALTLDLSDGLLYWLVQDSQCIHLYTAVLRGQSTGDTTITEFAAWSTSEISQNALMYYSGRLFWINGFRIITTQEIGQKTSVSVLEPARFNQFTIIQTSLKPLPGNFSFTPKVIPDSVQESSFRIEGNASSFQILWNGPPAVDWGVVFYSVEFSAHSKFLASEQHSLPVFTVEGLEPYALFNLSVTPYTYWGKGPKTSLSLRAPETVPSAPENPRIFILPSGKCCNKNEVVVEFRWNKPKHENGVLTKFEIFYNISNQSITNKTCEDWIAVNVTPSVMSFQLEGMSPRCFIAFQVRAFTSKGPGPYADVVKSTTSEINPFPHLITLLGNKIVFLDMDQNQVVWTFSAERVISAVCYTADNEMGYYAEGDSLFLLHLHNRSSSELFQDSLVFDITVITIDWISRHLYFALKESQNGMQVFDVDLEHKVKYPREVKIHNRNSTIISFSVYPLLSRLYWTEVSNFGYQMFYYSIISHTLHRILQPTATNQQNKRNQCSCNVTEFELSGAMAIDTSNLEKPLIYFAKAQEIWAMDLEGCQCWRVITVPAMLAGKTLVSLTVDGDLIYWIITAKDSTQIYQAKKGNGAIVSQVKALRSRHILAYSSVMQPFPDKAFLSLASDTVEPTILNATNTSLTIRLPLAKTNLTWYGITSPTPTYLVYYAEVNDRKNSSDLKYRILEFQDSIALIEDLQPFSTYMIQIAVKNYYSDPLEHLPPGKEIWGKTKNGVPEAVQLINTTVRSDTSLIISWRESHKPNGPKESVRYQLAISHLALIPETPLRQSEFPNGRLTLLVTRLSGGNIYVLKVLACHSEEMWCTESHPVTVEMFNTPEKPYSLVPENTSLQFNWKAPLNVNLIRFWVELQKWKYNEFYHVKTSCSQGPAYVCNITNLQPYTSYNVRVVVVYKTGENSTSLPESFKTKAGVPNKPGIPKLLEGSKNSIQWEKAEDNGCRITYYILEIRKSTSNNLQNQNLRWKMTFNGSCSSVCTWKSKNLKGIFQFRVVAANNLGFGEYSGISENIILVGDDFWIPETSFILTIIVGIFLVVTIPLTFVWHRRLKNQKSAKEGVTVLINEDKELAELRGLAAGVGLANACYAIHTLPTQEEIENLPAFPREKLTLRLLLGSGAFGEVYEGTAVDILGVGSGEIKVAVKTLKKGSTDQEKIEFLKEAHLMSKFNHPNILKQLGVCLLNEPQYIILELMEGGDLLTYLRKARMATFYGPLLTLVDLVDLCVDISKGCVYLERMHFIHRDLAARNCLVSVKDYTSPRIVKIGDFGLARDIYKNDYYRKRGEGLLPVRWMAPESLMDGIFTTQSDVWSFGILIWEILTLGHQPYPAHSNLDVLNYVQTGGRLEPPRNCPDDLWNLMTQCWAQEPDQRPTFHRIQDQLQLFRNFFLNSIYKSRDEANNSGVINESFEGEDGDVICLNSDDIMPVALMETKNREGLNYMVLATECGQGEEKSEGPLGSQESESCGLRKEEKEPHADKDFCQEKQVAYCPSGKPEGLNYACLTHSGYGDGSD

[4] = biological target: T3, EPHB2 (Homo sapiens, UniProt P29323); experiment: KINOMEscan ScanTK; type: binding
T3 construct: purchased Eurofins DiscoverX KINOMEscan (scanTK)
T3 sequence (P29323 19-1055): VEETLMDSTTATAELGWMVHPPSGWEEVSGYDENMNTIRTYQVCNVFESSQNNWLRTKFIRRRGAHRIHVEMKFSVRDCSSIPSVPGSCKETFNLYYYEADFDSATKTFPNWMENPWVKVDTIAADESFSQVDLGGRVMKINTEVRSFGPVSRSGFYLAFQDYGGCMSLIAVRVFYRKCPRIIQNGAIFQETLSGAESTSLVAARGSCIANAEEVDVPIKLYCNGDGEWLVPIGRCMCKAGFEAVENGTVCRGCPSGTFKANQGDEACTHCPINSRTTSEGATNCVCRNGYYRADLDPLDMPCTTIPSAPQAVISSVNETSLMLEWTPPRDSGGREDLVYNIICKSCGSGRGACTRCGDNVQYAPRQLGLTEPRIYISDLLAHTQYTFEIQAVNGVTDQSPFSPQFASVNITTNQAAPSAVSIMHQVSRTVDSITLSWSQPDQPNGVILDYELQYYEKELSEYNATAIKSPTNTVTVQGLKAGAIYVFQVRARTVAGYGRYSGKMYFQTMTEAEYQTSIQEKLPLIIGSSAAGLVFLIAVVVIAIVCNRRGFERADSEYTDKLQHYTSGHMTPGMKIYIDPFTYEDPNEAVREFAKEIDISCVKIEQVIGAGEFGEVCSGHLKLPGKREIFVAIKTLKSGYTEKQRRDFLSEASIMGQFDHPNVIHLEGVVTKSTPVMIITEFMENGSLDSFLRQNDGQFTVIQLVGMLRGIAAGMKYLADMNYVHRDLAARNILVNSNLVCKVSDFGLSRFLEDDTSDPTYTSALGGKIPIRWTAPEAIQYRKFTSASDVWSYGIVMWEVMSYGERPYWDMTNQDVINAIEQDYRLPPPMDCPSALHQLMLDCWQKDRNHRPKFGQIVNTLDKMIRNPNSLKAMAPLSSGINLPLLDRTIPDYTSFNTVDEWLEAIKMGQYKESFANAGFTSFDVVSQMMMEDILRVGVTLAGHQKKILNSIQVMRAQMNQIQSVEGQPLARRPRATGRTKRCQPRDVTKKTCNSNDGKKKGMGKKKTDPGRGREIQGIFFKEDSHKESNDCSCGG

[5] = biological target: T4, RET(V804M) (Homo sapiens, UniProt P07949, V804M); experiment: KINOMEscan ScanTK; type: binding
T4 construct: purchased Eurofins DiscoverX KINOMEscan (scanTK)
T4 sequence (P07949 29-1114 V804M): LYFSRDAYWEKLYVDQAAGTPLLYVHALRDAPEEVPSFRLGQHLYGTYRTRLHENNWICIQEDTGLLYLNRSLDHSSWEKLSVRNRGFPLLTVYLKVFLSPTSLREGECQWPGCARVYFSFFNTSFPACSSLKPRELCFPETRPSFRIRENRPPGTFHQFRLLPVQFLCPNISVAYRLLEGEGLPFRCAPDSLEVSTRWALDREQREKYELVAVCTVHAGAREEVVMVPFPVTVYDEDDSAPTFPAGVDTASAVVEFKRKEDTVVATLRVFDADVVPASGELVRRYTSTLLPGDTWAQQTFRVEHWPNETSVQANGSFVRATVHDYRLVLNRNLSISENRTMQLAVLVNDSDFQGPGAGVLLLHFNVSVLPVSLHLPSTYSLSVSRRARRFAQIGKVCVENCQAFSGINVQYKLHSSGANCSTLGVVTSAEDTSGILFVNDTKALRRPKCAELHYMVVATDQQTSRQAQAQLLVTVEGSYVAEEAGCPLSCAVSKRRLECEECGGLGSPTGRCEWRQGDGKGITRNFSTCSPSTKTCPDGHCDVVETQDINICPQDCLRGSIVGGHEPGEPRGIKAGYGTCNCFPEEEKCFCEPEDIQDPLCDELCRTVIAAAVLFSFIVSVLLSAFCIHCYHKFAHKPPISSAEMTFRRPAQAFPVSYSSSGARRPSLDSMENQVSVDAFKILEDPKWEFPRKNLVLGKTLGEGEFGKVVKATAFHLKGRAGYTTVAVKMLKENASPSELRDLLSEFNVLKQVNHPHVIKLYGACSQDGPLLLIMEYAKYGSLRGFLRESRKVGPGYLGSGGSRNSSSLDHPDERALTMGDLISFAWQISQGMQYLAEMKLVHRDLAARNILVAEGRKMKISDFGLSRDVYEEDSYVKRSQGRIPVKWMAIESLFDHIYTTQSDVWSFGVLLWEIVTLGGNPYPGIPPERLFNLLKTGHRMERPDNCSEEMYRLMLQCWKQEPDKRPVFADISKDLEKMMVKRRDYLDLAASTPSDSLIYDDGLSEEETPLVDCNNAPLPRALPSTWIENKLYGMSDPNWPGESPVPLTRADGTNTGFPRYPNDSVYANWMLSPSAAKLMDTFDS

[6] = biological target: T5, ABL1(Q252H)-nonphosphorylated (Homo sapiens, UniProt P00519, Q252H); experiment: KINOMEscan ScanTK; type: binding
T5 construct: purchased Eurofins DiscoverX KINOMEscan (scanTK)

[7] = biological target: T6, EPHA8 (Homo sapiens, UniProt P29322); experiment: KINOMEscan ScanTK; type: binding
T6 construct: purchased Eurofins DiscoverX KINOMEscan (scanTK)
T6 sequence (P29322 28-1005): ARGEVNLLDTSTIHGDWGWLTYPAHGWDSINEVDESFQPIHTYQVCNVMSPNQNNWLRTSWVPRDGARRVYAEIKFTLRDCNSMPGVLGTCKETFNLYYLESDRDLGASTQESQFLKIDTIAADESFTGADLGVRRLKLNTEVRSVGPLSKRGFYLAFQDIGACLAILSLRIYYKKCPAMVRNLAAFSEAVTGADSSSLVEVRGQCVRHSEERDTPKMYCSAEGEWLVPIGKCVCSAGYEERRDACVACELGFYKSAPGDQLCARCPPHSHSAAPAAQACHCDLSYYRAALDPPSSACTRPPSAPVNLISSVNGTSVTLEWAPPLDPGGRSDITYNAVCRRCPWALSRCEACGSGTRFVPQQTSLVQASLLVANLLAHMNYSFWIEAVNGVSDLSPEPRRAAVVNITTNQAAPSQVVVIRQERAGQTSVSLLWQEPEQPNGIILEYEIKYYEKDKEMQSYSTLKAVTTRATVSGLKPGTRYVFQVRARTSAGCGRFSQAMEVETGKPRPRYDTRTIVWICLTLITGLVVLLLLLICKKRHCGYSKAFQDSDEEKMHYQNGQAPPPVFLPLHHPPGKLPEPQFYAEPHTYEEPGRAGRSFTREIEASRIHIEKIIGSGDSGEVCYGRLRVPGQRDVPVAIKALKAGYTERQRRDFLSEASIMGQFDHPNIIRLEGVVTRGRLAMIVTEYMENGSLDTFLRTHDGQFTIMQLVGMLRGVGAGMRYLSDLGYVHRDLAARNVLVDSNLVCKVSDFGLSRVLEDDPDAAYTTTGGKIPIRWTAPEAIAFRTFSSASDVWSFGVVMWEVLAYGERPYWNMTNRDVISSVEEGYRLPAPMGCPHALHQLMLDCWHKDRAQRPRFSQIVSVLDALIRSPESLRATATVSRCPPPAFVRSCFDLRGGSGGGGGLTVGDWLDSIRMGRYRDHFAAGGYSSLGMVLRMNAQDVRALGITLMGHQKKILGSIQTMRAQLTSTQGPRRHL

[8] = biological target: T7, EGFR(G719S) (Homo sapiens, UniProt P00533, G719S); experiment: KINOMEscan ScanTK; type: binding
T7 construct: purchased Eurofins DiscoverX KINOMEscan (scanTK)
T7 sequence (P00533 25-1210 G719S): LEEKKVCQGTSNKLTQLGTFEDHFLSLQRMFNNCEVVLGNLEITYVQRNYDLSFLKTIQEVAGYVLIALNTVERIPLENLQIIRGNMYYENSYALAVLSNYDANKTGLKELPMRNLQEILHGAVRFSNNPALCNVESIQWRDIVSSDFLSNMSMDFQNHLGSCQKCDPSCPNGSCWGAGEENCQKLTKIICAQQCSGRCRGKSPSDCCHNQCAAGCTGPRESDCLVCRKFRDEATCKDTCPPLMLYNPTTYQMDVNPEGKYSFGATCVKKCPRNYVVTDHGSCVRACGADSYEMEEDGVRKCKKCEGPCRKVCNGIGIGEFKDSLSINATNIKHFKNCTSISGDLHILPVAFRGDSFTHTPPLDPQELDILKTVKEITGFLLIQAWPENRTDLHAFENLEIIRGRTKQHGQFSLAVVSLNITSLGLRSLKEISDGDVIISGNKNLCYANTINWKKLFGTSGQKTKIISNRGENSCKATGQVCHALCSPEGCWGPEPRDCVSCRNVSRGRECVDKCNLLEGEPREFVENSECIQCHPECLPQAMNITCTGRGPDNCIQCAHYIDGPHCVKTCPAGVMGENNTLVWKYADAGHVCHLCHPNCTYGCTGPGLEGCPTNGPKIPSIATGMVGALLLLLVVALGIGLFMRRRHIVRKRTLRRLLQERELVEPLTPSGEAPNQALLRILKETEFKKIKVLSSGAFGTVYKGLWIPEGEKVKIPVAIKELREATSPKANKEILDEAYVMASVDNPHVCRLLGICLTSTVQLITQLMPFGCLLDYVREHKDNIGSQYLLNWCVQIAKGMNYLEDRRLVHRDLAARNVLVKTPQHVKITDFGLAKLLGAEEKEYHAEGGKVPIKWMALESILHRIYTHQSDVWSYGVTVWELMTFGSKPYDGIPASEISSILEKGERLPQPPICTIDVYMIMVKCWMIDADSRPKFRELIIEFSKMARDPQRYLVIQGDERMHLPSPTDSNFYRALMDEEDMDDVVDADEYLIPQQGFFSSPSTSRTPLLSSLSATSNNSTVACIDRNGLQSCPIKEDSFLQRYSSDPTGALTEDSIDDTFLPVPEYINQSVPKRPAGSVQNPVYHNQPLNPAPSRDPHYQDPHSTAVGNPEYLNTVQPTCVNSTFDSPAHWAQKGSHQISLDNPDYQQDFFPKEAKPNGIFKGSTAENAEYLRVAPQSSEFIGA

[9] = biological target: T8, ABL1(F317L)-nonphosphorylated (Homo sapiens, UniProt P00519, F317L); experiment: KINOMEscan ScanTK; type: binding
T8 construct: purchased Eurofins DiscoverX KINOMEscan (scanTK)

[10] = biological target: T9, RET(V804L) (Homo sapiens, UniProt P07949, V804L); experiment: KINOMEscan ScanTK; type: binding
T9 construct: purchased Eurofins DiscoverX KINOMEscan (scanTK)
T9 sequence (P07949 29-1114 V804L): as the sequence (P07949 29-1114 V804M) above, with M776L counted along it

[11] = biological target: T10, TRKB (Homo sapiens, UniProt Q16620); experiment: KINOMEscan ScanTK; type: binding
T10 construct: purchased Eurofins DiscoverX KINOMEscan (scanTK)

[12] = biological target: JAK3, catalytic domain (795–1124) (Homo sapiens, UniProt P52333); experiment: PhosphoSens enzymatic IC50 (AssayQuant)
Chain of JAK3, catalytic domain (795–1124) (P52333 795-1124): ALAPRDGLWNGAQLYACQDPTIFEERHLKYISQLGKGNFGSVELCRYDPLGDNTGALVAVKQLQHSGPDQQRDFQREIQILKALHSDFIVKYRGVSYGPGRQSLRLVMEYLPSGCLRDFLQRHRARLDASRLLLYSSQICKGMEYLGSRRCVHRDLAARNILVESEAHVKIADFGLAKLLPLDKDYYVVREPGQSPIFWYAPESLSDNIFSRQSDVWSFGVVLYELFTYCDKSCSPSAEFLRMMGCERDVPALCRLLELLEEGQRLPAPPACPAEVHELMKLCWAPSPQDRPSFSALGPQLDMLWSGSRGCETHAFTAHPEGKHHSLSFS

[13] = @1000nM, TRKB, read-out: %Control
[14] = TRKB, read-out: %Control @1000nM

| remaining binding at 1 µM ([2]; @1000nM, read-out: %Control) [%] | remaining binding at 1 µM ([2]; read-out: %Control @1000nM) [%] | %Control difference versus reference Ib at 1 µM ([3]; @1000nM) [%] | remaining binding at 1 µM ([3]; @1000nM, read-out: %Control) [%] | remaining binding at 1 µM ([3]; read-out: %Control @1000nM) [%] | %Control difference from compound Ib at 1 µM ([4]; @1000nM) [%] | remaining binding at 1 µM ([4]; @1000nM, read-out: %Control) [%] | remaining binding at 1 µM ([4]; read-out: %Control @1000nM) [%] | remaining binding at 1 µM ([5]; @1000nM, read-out: %Control) [%] | remaining binding at 1 µM ([5]; read-out: %Control @1000nM) [%] | difference in %Control versus reference compound Ib at 1 µM ([6]; @1000nM) [%] | remaining binding at 1 µM ([6]; @1000nM, read-out: %Control) [%] | remaining binding at 1 µM ([6]; read-out: %Control @1000nM) [%] | remaining binding at 1 µM ([7]; @1000nM, read-out: %Control) [%] | remaining binding at 1 µM ([7]; read-out: %Control @1000nM) [%] | remaining binding at 1 µM ([9]; @1000nM, read-out: %Control) [%] | remaining binding at 1 µM ([9]; read-out: %Control @1000nM) [%] | Structure (SMILES) | %Control @1000nM [1] [%] | % difference (compound - Ib %Control) [1] [%] | %Control [1] [%] | other results |
| --- | --- | --- | --- | --- | --- | --- | --- | --- | --- | --- | --- | --- | --- | --- | --- | --- | --- | --- | --- | --- | --- |
| 100 | 100 | 3 | 100 | 100 | -2 | 98 | 98 | 100 | 100 | 23 | 36 | 36 | 88 | 88 | 90 | 90 | CCOC(=O)c1cnc(S(C)(=O)=O)nc1N1CCC[C@@H](n2nc(-c3ccc(Oc4ccccc4)cc3)c3c(N)ncnc32)C1 [Compound 8c, Ethyl (R)-4-(3-(4-Amino-3-(4-phenoxyphenyl)-1H-pyrazolo[3,4-d]pyrimidin-1-yl)piperidin-1-yl)-2-(methylsulfonyl)pyrimidine-5-carboxylate] | 74 | 71.4 | 74 | difference in %Control versus compound Ib at 1 µM ([7]; @1000nM): 19%; difference in %Control from compound Ib at 1 µM ([8]; @1000nM): 93.4%; remaining binding at 1 µM ([8]; @1000nM, read-out: %Control): 94%; remaining binding at 1 µM ([8]; read-out: %Control @1000nM): 94%; difference in % of control binding versus compound Ib at 1 µM ([9]; @1000nM): 58%; remaining binding at 1 µM ([10]; @1000nM, read-out: %Control): 100%; remaining binding at 1 µM ([10]; read-out: %Control @1000nM): 100%; difference in %Control versus compound Ib at 1 µM ([11]; @1000nM, TRKB): -15%; remaining binding at 1 µM [11, 13]: 77%; remaining binding at 1 µM [11, 14]: 77% |
| 100 | 100 | -4 | 93 | 93 | -16 | 84 | 84 | 93 | 93 | 25 | 38 | 38 | 82 | 82 | 76 | 76 | Cc1cnc(S(C)(=O)=O)nc1N1CCCC(n2nc(-c3ccc(Oc4ccccc4)cc3)c3c(N)ncnc32)C1 (stereo not shown) [Compound 8a, 1-(1-(5-Methyl-2-(methylsulfonyl)pyrimidin-4-yl)piperidin-3-yl)-3-(4-phenoxyphenyl)-1H-pyrazolo[3,4-d]pyrimidin-4-amine] | 70 | 67.4 | 70 | IC50 [12]: > 1 µM; difference in %Control versus compound Ib at 1 µM ([7]; @1000nM): 13%; difference in %Control from compound Ib at 1 µM ([8]; @1000nM): 95.4%; remaining binding at 1 µM ([8]; @1000nM, read-out: %Control): 96%; remaining binding at 1 µM ([8]; read-out: %Control @1000nM): 96%; difference in % of control binding versus compound Ib at 1 µM ([9]; @1000nM): 44%; remaining binding at 1 µM ([10]; @1000nM, read-out: %Control): 89%; remaining binding at 1 µM ([10]; read-out: %Control @1000nM): 89%; difference in %Control versus compound Ib at 1 µM ([11]; @1000nM, TRKB): -17%; remaining binding at 1 µM [11, 13]: 75%; remaining binding at 1 µM [11, 14]: 75% |

| Structure (SMILES) | remaining binding at 1 µM ([2]; @1000nM, read-out: %Control) [%] | remaining binding at 1 µM ([2]; read-out: %Control @1000nM) [%] | %Control difference versus reference Ib at 1 µM ([3]; @1000nM) [%] | remaining binding at 1 µM ([3]; @1000nM, read-out: %Control) [%] | remaining binding at 1 µM ([3]; read-out: %Control @1000nM) [%] | %Control difference from compound Ib at 1 µM ([4]; @1000nM) [%] | remaining binding at 1 µM ([4]; @1000nM, read-out: %Control) [%] | remaining binding at 1 µM ([4]; read-out: %Control @1000nM) [%] | remaining binding at 1 µM ([5]; @1000nM, read-out: %Control) [%] | remaining binding at 1 µM ([5]; read-out: %Control @1000nM) [%] | difference in %Control versus reference compound Ib at 1 µM ([6]; @1000nM) [%] | remaining binding at 1 µM ([6]; @1000nM, read-out: %Control) [%] | remaining binding at 1 µM ([6]; read-out: %Control @1000nM) [%] | remaining binding at 1 µM ([7]; @1000nM, read-out: %Control) [%] | remaining binding at 1 µM ([7]; read-out: %Control @1000nM) [%] | remaining binding at 1 µM ([9]; @1000nM, read-out: %Control) [%] | remaining binding at 1 µM ([9]; read-out: %Control @1000nM) [%] | %Control @1000nM [1] [%] | % difference (compound - Ib %Control) [1] [%] | %Control [1] [%] | other results |
| --- | --- | --- | --- | --- | --- | --- | --- | --- | --- | --- | --- | --- | --- | --- | --- | --- | --- | --- | --- | --- | --- |
| C=CC(=O)N1CCC[C@@H](n2nc(-c3ccc(Oc4ccccc4)cc3)c3c(N)ncnc32)C1 [Compound 1g, Ibrutinib, reference compound] | 100 | 100 | – | 97 | 97 | – | 100 | 100 | 100 | 100 | – | 13 | 13 | 69 | 69 | 32 | 32 | 2.6 | – | 2.6 | remaining binding at 1 µM ([11]; read-out: %Control): 92%; remaining binding at 1 µM ([11]; read-out: %Control @1000nM): 92% |
